Results on 22 compounds are retold here after patent US20230312587A1, “PTERIDINONE COMPOUNDS AND USES THEREOF” (Vertex Pharmaceutical Incorporated, priority 2018, published 2023).

Read-outs that look alike come from different tables or passages of the source. Where only a bound is given, the exact number is not on record here.

The subject of assay [1] is β-catenin-TCF-mediated reporter transcription activity in Colo 205 cells. Briefly: Colo 205 reporter assay (TCF/LEF luciferase). Type of assay: cell-based. Particulars: Colo 205 TCF/LEF luciferase reporter, five hours after addition of compound, read-out: TCF reporter Colo205 IC50. In short, it runs like this: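 Luciferase signal from a TCF/LEF-driven reporter, stably integrated in Colo 205 colon cancer cells, was measured 5 h after compound addition.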

Assay [2] concerns Hek293 WFS1 over-expressor. Briefly: In vitro cell viability (CellTiter-Glo), Hek293 WFS1 over-expressor. Type of assay: cell-based. Particulars: read-out: Hek293 WFS1 viability. As to the method:
WFS1 cDNA is amplified from clone RC202901 (Origene Technologies) with primers 5′-TCCGCGGCCCCAAGCTTATCGCCATGGACTCCAACACTGC-3′ (SEQ ID NO: 1), 5′-GATGGGCCCAGATCTCGAGTCAGGCCGCCGACAGGAATG-3′ (SEQ ID NO: 2) and cloned into a retroviral mammalian expression vector pCLPCX using HD Infusion (CLONTECH) at Hind3-Xhol sites using standard procedures. The resulting clone is identified as pCLPCX_WFS1.
HEK293 (ATCC, catalog #CRL-1573) cells are plated in 10 cm dishes (Corning, product #430167) into 10 mL of complete DMEM cell culture media [DMEM (Life Technologies, product #11960-051) media supplemented with 10% FBS (Hyclone, catalog #SH30071.03), antimycotic/antibiotic (Life Technologies, product #15240-062), and Glutamax (Life Technologies, product #35050-061)] at 3×10^6 cells per dish. Cells are allowed to attach and grow overnight at 37° C. in humidified 5% CO2. Cells are co-transfected with pVSV-G, pCMV-Gag/Pol and pCLPCX_WFS1 using Fugene 6 (Promega, catalog #E2691) according to manufacturer's protocol. Separately, cells are co-transfected with pVSV-G, pCMV-Gag/Pol and pCLPCX to produce control retrovirus. Cell culture media containing retrovirus (viral supernatant) is collected at 48 and 72 hours following transfection, filtered through a 0.4 uM filter, and stored at −80° C.
HEK293 cells are plated in 6 well plates (Corning, product #3516) in 2 mL of complete DMEM cell culture media at 1×10^5 cells well and allowed to attach and grow overnight at 37° C. in humidified 5% CO2. The following day, the media is replaced with viral supernatant to which 10 ug/ml of Polybrene® (Santa Cruz Biotech, catalog #sc-134220) is added. Viral supernatant is replaced 24 hours later with complete DMEM media. Transduced cells are selected in complete DMEM cell culture media containing 1 microgram/mL of puromycin (Life Technologies, catalog #A1113803).
HEK293 cells containing empty pCLPCx vector (HEK293 empty), HEK293 cells stably over-expression WFS1 (HEK293 WFS1), HepG2, and HepG2 cells where WFS1 was depleted via CRISPR/Cas9 (HepG2 WFS1 KO) cells were plated into 96-well black plates (Corning, product #3904) in 100 microliters of complete DMEM cell culture media [DMEM (Life Technologies, product #11960-051) media supplemented with 10% FBS (Hyclone, catalog #SH30071.03), antimycotic/antibiotic (Life Technologies, product #15240-062), and Glutamax (Life Technologies, product #35050-061)] at 1,000 (HEK293) or 5,000 (HepG2) cells per well. Cells were allowed to attach and grow overnight, after which compounds are added at various concentrations. Cell viability was assessed 96 hrs after compound addition with CellTiter-Glo reagent (Promega, catalog #G7570) according to manufacturer's protocol and measurement on a Pherastar luminescence plate reader (BMG Labtech).
The IC50s for the viability of both the Hek293 empty vector and WFS1 over-expressing cells are summarized in Table 47: A<0.06 μM; 0.06 μM≤B<0.6 μM; 0.6 μM≤C<3.0 μM; D≥3.0 μM.

Where [3] appears, read: Homo sapiens, HEK293, Hek293 WFS1 over-expressing cells.

With `Cc1nc(N[C@H]2CC[C@H](n3ccc(C(F)(F)F)n3)C2)nc2c1NC(=O)[C@H](C)N2C` (single isomer, unassigned) [Compound 310], the IC50 in assay [1] (Homo sapiens, COLO 205, 5 h) is 1000 to 5000 nM; in assay [2] (setting [3]), 60 to 600 nM.
In the case of `Cc1nc(N[C@@H]2CC[C@@H](n3ccc(C(F)(F)F)n3)C2)nc2c1NC(=O)[C@H](C)N2C` (single isomer, unassigned) [Compound 311], the IC50 in assay [1] (Homo sapiens, COLO 205, 5 h) is less than 300 nM; in assay [2] (setting [3]) it was less than 60 nM.
Regarding `Cc1nc(N[C@H]2CC[C@H](Oc3ccc(C(F)(F)F)nc3)C2)nc2c1NC(=O)[C@H](C)N2C` (single isomer, unassigned) [Compound 376], the IC50 fell in the range of 1000 to 5000 nM in assay [1] and 60 to 600 nM in assay [2] (setting [3]).
On to `Cc1nc(N[C@H]2CC[C@H](Oc3ccc(C(F)(F)F)nc3)C2)nc2c1NC(=O)[C@H](C)N2C` (single isomer, unassigned) [Compound 377], for which the values for the IC50 in assay [1] and in assay [2] (Hek293 WFS1 over-expressing cells) were less than 300 nM and less than 60 nM, respectively.
Turning to `Cc1nc(NCc2cnn(Cc3ccc(C(F)(F)F)nc3[C@@H](C)O)c2)nc2c1NC(=O)[C@H](C)N2C` (single isomer, unassigned) [Compound 420], the IC50 in assay [1] (Homo sapiens, COLO 205, 5 h) is less than 300 nM; in assay [2] (setting [3]) it was 60 to 600 nM.
The like results for `Cc1nc(NCc2cnn(Cc3ccc(F)cc3)c2)nc2c1N(C)C(=O)[C@H](C)N2C` [Compound 1, (7S)-2-(((1-(4-fluorobenzyl)-1H-pyrazol-4-yl)methyl)amino)-4,5,7,8-tetramethyl-7,8-dihydropteridin-6(5H)-one] were, in that order, less than 300 nM and less than 60 nM.
The like results for `Cc1nc(NCc2cnn(Cc3ccc(F)cc3)c2)nc2c1NC(=O)[C@H](C)N2C` [Compound 4, (7S)-2-(((1-(4-fluorobenzyl)-1H-pyrazol-4-yl)methyl)amino)-4,7,8-trimethyl-7,8-dihydropteridin-6(5H)-one] were, in that order, less than 300 nM and less than 60 nM.
The corresponding values for `Cc1nc(NCc2cnn(CCc3ccc(F)cc3)c2)nc2c1NC(=O)[C@H](C)N2C` [Compound 6, (7S)-2-(((1-(4-fluorophenethyl)-1H-pyrazol-4-yl)methyl)amino)-4,7,8-trimethyl-7,8-dihydropteridin-6(5H)-one] are 300 to 1000 nM and 60 to 600 nM.
Regarding `Cc1nc(NCc2cnn(CC3CCC3)c2)nc2c1N(C)C(=O)[C@H](C)N2C` [Compound 7, (7S)-2-(((1-(cyclobutylmethyl)-1H-pyrazol-4-yl)methyl)amino)-4,5,7,8-tetramethyl-7,8-dihydropteridin-6(5H)-one], the IC50 in assay [1] (Homo sapiens, COLO 205, 5 h) lay in the range of 300 to 1000 nM; in assay [2] (setting [3]), 60 to 600 nM.
The like results for `Cc1nc(NCc2cnn(CCc3ccc(F)cc3)c2)nc2c1N(C)C(=O)[C@H](C)N2C` [Compound 8, (7S)-2-(((1-(4-fluorophenethyl)-1H-pyrazol-4-yl)methyl)amino)-4,5,7,8-tetramethyl-7,8-dihydropteridin-6(5H)-one] were, in that order, 300 to 1000 nM and no less than 3000 nM.
The like results for `CC[C@H]1C(=O)Nc2cnc(NCc3cnn(Cc4ccc(F)cc4)c3)nc2N1C` [Compound 9, (7S)-7-ethyl-2-(((1-(4-fluorobenzyl)-1H-pyrazol-4-yl)methyl)amino)-8-methyl-7,8-dihydropteridin-6(5H)-one] were, in that order, less than 300 nM and 60 to 600 nM.
The like results for `COc1c(F)cc(Cn2cc(CNc3nc(C)c4c(n3)N(C)[C@@H](C)C(=O)N4)cn2)cc1F` [Compound 46, (7S)-2-(((1-(3,5-difluoro-4-methoxybenzyl)-1H-pyrazol-4-yl)methyl)amino)-4,7,8-trimethyl-7,8-dihydropteridin-6(5H)-one] were, in that order, less than 300 nM and less than 60 nM.
Regarding `Cc1nc(NCc2cnn(Cc3ccc(F)nc3)c2)nc2c1NC(=O)[C@H](C)N2C` [Compound 77], the IC50 in assay [1] (Homo sapiens, COLO 205, 5 h) is less than 300 nM; in assay [2] (setting [3]), 60 to 600 nM.
The corresponding values for `Cc1nc(NCc2cnn(Cc3cccc(C(C)C)c3)c2)nc2c1NC(=O)[C@H](C)N2C` [Compound 80, (7S)-2-(((1-(3-isopropylbenzyl)-1H-pyrazol-4-yl)methyl)amino)-4,7,8-trimethyl-7,8-dihydropteridin-6(5H)-one] are less than 300 nM and less than 60 nM.
The like results for `COc1cc(F)ccc1Cn1cc(CNc2nc(C)c3c(n2)N(C)[C@@H](C)C(=O)N3)cn1` [Compound 83, (7S)-2-(((1-(4-fluoro-2-methoxybenzyl)-1H-pyrazol-4-yl)methyl)amino)-4,7,8-trimethyl-7,8-dihydropteridin-6(5H)-one] were, in that order, less than 300 nM and less than 60 nM.
For the compound `Cc1cc(F)ncc1Cn1cc(CNc2nc(C)c3c(n2)N(C)[C@@H](C)C(=O)N3)cn1` [Compound 94, (7S)-2-(((1-((6-fluoro-4-methylpyridin-3-yl)methyl)-1H-pyrazol-4-yl)methyl)amino)-4,7,8-trimethyl-7,8-dihydropteridin-6(5H)-one], the IC50 in assay [1] (Homo sapiens, COLO 205, 5 h) is less than 300 nM; in assay [2] (setting [3]), less than 60 nM.
For `Cc1nc(NCc2cnn(C[C@H](C)c3ccc(F)cc3)c2)nc2c1NC(=O)[C@H](C)N2C` [Compound 96, (7S)-2-(((1-((R)-2-(4-fluorophenyl)propyl)-1H-pyrazol-4-yl)methyl)amino)-4,7,8-trimethyl-7,8-dihydropteridin-6(5H)-one], the IC50 in assay [1] (Homo sapiens, COLO 205, 5 h) was less than 300 nM; in assay [2] (setting [3]) it was 60 to 600 nM.
The corresponding values for `Cc1nc(NCc2cnn(CCC3CCOCC3)c2)nc2c1NC(=O)[C@H](C)N2C` [Compound 115, (7S)-4,7,8-trimethyl-2-(((1-(2-(tetrahydro-2H-pyran-4-yl)ethyl)-1H-pyrazol-4-yl)methyl)amino)-7,8-dihydropteridin-6(5H)-one] are 1000 to 5000 nM and 600 to 3000 nM.
For `CCOc1ccc(CCn2cc(CNc3ncc4c(n3)N(C)[C@@H](C)C(=O)N4)cn2)cc1` [Compound 121, (7S)-2-(((1-(4-ethoxyphenethyl)-1H-pyrazol-4-yl)methyl)amino)-7,8-dimethyl-7,8-dihydropteridin-6(5H)-one], the IC50 in assay [1] (Homo sapiens, COLO 205, 5 h) is 1000 to 5000 nM; in assay [2] (setting [3]), 600 to 3000 nM.
The like results for `Cc1nc(NCc2cnn(Cc3cc(F)c(F)c(F)c3)c2)nc2c1NC(=O)[C@H](C)N2C` [Compound 122, (7S)-4,7,8-trimethyl-2-(((1-(3,4,5-trifluorobenzyl)-1H-pyrazol-4-yl)methyl)amino)-7,8-dihydropteridin-6(5H)-one] were, in that order, less than 300 nM and less than 60 nM.
In the case of `Cc1nc(NCc2cnn(C3CCN(C(=O)c4ccc(F)cc4)CC3)c2)nc2c1NC(=O)[C@H](C)N2C` [Compound 125, (7S)-2-(((1-(1-(4-Fluorobenzoyl)piperidin-4-yl)-1H-pyrazol-4-yl)methyl)amino)-4,7,8-trimethyl-7,8-dihydropteridin-6(5H)-one], the IC50 in assay [1] (Homo sapiens, COLO 205, 5 h) was 1000 to 5000 nM; in assay [2] (setting [3]) it was 600 to 3000 nM.
The corresponding values for `Cc1nc(NCc2cnn(CC(C)(O)c3ccc(F)cc3)c2)nc2c1NC(=O)[C@H](C)N2C` (stereo partly drawn) [Compound 128, (7S)-2-(((1-(2-(4-fluorophenyl)-2-hydroxypropyl)-1H-pyrazol-4-yl)methyl)amino)-4,7,8-trimethyl-7,8-dihydropteridin-6(5H)-one] are 1000 to 5000 nM and 600 to 3000 nM.
